According to patent US20260265250A1, “3-[…] ACTIVATORS OF SEROTONIN RECEPTORS” (Atai Therapeutics, Inc., priority 2023, published 2026):
Where a name gives a salt, the structure may show the parent alone.

How the values were obtained:
5-HT2A [1] = molecular target: T1, 5-HT2A (Homo sapiens, UniProt P28223); assay: Calcium Mobilization Assay (Calcium No-WashPLUS, Gq, FLIPR); format: cell-based; conditions: read-out: 5-HT2A % activation @30 uM Ca++ Flux
Protocol: (§1) Compounds 1-18 were assessed for biological activity across a panel of 5-HT receptors including 5-HT2A, 5-HT2B, and 5-HT2C. Biased signaling was assessed by monitoring both intracellular Gq-mediated calcium release, as well as β-arrestin activation and recruitment to the GPCR. Table 2 is a summary of findings across these compounds and the 5-HT receptors tested. • (i) Arrestin Pathway Assay. The PathHunter® β-Arrestin assay monitors the activation of a GPCR in a homogenous, non-imaging assay format using a technology developed by DiscoverX called Enzyme Fragment Complementation (EFC) with β-galactosidase (β-Gal) as the functional reporter. […] EA is fused to β-Arrestin and PK is fused to the GPCR of interest. When the GPCR is activated and β-Arrestin is recruited to the receptor, ED and EA complementation occurs, restoring β-Gal activity which is measured using chemiluminescent PathHunter® Detection Reagents. PathHunter cell lines (DiscoveRx Eurofins) were expanded from freezer stocks according to standard procedures. Cells were seeded in a total volume of 20 μL into white walled, 384-well microplates and incubated at 37° C. for the appropriate time prior to testing. For agonist determination, cells were incubated with sample to induce response. Intermediate dilution of sample stocks was performed to generate 5× sample in assay buffer. 5 μL of 5× sample was added to cells and incubated at 37° C. or room temperature for 90 to 180 minutes. Vehicle concentration was 1%. β-Arrestin assay signal was generated through a single addition of 12.5 or 15 μL (50% v/v) of PathHunter Detection reagent cocktail, followed by a one-hour incubation at room temperature. Microplates were read following signal generation with a PerkinElmer Envision™ instrument for chemiluminescent signal detection. Compound activity was analyzed using CBIS data analysis suite (ChemInnovation, CA). For agonist mode assays, percentage activity was calculated using the following formula: % Activity=100%×(mean RLU of test sample-mean RLU of vehicle control)/(mean MAX control ligand−mean RLU of vehicle control). In these studies, the MAX control ligand response was generated using 10 mM serotonin. • (ii) Calcium Mobilization Assay. The Calcium No-WashPLUS assay monitors the activation of a GPCR via Gq secondary messenger signaling in a live cell, non-imaging assay format. Calcium mobilization in PathHunter® cell lines or other cell lines stably expressing Gq-coupled GPCRs is monitored using a calcium-sensitive dye that is loaded into cells. GPCR activation by a compound result in the release of calcium from intracellular stores and an increase in dye fluorescence that is measured in real-time. Cell lines expressing the GPCR of interest were expanded from freezer stocks according to standard procedures. Cells were seeded in a total volume of 20 μL into black-walled, clear-bottom, Poly-D-lysine coated 384-well microplates and incubated at 37° C. for the appropriate time prior to testing. Assays were performed in 1× Dye Loading Buffer consisting of 1× Dye, 1× Additive A and 2.5 mM Probenecid in HBSS/20 mM Hepes. Probenicid was prepared fresh. Cells were loaded with dye prior to testing. Media was aspirated from cells and replaced with 20 μL Dye Loading Buffer. Cells were incubated for 30-60 minutes at 37° C. For agonist determination, cells were incubated with sample to induce response. After dye loading, cells were removed from the incubator and 10 μL HBSS/20 mM Hepes was added. 3× vehicle was included in the buffer when performing agonist dose curves to define the EC80 for subsequent antagonist assays. Cells were incubated for 30 minutes at room temperature in the dark to equilibrate plate temperature. Intermediate dilution of sample stocks was performed to generate 4× sample in assay buffer. Compound agonist activity was measured on a FLIPR Tetra (MDS). Calcium mobilization was monitored for 2 minutes and 10 μL 4× sample in HBSS/20 mM Hepes was added to the cells 5 seconds into the assay. […]
Target sequence in this assay (P28223 whole entry, the tested form may be a part): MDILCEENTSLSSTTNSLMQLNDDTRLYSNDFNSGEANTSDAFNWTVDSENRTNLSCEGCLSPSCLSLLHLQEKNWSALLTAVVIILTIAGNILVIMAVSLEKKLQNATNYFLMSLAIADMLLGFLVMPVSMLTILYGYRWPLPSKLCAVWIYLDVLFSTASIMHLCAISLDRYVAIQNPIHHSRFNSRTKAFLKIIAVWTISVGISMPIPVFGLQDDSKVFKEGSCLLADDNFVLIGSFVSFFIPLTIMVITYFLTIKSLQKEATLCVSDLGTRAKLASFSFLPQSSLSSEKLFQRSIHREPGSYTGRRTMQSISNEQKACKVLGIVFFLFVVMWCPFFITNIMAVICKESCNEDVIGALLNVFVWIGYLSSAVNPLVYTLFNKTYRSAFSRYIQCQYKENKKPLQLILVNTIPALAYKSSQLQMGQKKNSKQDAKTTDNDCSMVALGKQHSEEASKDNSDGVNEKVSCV

5-HT2A [2] = molecular target: T1, 5-HT2A; assay: PathHunter β-Arrestin assay; format: cell-based
Protocol: as §1
Target sequence in this assay (P28223 whole entry, the tested form may be a part): as above
Target sequence in this assay (P32121 whole entry, further chain, the tested form may be a part): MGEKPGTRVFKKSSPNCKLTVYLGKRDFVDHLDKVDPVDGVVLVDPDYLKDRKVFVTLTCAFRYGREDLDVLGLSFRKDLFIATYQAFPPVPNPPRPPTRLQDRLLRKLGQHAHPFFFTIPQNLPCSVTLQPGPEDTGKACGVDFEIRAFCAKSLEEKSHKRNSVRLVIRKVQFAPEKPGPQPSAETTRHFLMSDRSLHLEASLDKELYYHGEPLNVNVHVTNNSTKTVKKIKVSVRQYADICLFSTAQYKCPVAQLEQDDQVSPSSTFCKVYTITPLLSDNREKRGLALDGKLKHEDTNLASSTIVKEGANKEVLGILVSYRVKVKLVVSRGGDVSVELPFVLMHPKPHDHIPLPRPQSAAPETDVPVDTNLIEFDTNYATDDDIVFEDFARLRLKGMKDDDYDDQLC

5-HT2C = molecular target: T2, 5-HT2C (Homo sapiens, UniProt P28335); assay: 5-HT receptor panel, 5-HT2C agonist EC50 (readout not stated); format: cell-based
T2 sequence (P28335 33-458): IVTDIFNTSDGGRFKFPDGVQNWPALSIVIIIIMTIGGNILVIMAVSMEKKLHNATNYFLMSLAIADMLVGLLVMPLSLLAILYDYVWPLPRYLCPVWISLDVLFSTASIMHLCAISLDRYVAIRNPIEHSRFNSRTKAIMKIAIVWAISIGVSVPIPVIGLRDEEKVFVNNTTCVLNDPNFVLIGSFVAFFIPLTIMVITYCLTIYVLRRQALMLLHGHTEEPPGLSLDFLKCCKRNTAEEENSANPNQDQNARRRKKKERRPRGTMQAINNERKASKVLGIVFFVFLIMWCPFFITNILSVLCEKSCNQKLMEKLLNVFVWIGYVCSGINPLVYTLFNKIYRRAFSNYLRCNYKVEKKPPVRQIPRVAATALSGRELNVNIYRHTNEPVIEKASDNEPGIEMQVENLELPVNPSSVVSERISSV
Protocol: as §1

5-HT2A [3] = molecular target: T1, 5-HT2A; conditions: compared to reference LSD; cited from earlier work
Target sequence in this assay (P28223 whole entry, the tested form may be a part): as the sequence (P28223 whole entry, the tested form may be a part) above

5-HT2A receptor [4] = conditions: cited from earlier work
5-HT2A receptor [5] = conditions: cited from earlier work; remark: listed apart in the source

| Structure (SMILES) | activation at 30 µM (5-HT2A [1]) | EC50 (5-HT2A [2]) | EC50 (5-HT2C) | other results |
| --- | --- | --- | --- | --- |
| Cc1cc(Cl)cc(CNC(C)Cc2c[nH]c3ccccc23)c1 (stereo not drawn) [Compound 2, N-(3-chloro-5-methylbenzyl)-1-(1H-indol-3-yl) propan-2-amine] | 84.2% | 0.434 µM | 0.102 µM | – |
| COc1ccc(OC)c(CCNCc2cccc3c2OCO3)c1 [Compound 25H-NBMD] | – | – | – | preference for recruitment of β-arrestin 2 over miniGaq (5-HT2A [3]): statistically significant preference towards the recruitment of β-arrestin 2 over miniGaq |
| CCN(CC)C(=O)[C@@H]1C=C2c3cccc4[nH]cc(c34)C[C@H]2N(C)C1 [LSD] | – | – | – | expression of early growth response proteins (EGR1 and EGR2) via Gi/o subunits and SRC protein kinase (5-HT2A receptor [4]): stimulated the expression of early growth response proteins (EGR1 and EGR2); activation of canonical Gq-based signaling downstream of 5-HT2A (5-HT2A receptor [5]): activate canonical Gq-based signaling downstream of 5-HT2A |
| Cc1cc(Cl)cc(CNCCc2cn(C)c3ccccc23)c1 [Compound 5, N-(3-chloro-5-methylbenzyl)-2-(1-methyl-1H-indol-3-yl) ethan-1-amine] | 112% | 0.0175 µM | 0.116 µM | – |
| CCn1cc(CCNCc2cc(C)cc(Cl)c2)c2ccccc21 [Compound 7, N-(3-chloro-5-methylbenzyl)-2-(1-ethyl-1H-indol-3-yl) ethan-1-amine hydrochloride] | 95.9% | 0.0172 µM | 0.004 µM | – |
| Cc1cc(Cl)cc(CNCCn2cnc3ccccc32)c1 [Compound 13, 2-(1H-benzo[d]imidazol-1-yl)-N-(3-chloro-5-methylbenzyl) ethan-1-amine hydrochloride] | 43.5% | – | – | – |
| CCn1cc(CC(C)NCc2cc(C)cc(Cl)c2)c2ccccc21 (stereo not drawn) [Compound 8, N-(3-chloro-5-methylbenzyl)-1-(1-ethyl-1H-indol-3-yl) propan-2-amine] | 86.4% | – | – | – |
| Cc1cc(Cl)cc(CN(C)CCc2c[nH]c3ccccc23)c1 [Compound 18] | 93.3% | – | – | – |
| COc1ccc(OC)c(CCNCc2ccccc2OC)c1 [Compound 25H-NBOMe] | – | – | – | preference for recruitment of β-arrestin 2 over miniGaq (5-HT2A [3]): statistically significant preference towards the recruitment of β-arrestin 2 over miniGaq |
| Cc1cc(Cl)cc(CNC(C)Cc2cn(C)c3ccccc23)c1 (stereo not drawn) [Compound 6, N-(3-chloro-5-methylbenzyl)-1-(1-methyl-1H-indol-3-yl) propan-2-amine] | 110% | – | – | – |
| COc1ccc(OC)c(CCNCc2ccccc2F)c1 [Compound 25H-NBF] | – | – | – | preference for recruitment of β-arrestin 2 over miniGaq (5-HT2A [3]): statistically significant preference towards the recruitment of β-arrestin 2 over miniGaq |
| Cc1cc(Cl)cc(CNCCc2nn(C)c3ccccc23)c1 [Compound 11, N-(3-chloro-5-methylbenzyl)-2-(1-methyl-1H-indazol-3-yl)-ethan-1-amine] | 79.1% | – | – | – |
| COc1ccc(OC)c(CCNCc2ccccc2O)c1 [Compound 25H-NBOH] | – | – | – | preference for recruitment of β-arrestin 2 over miniGaq (5-HT2A [3]): statistically significant preference towards the recruitment of β-arrestin 2 over miniGaq |
| Cc1cc(Cl)cc(CNCCn2ncc3ccccc32)c1 [Compound 12, N-(3-chloro-5-methylbenzyl)-2-(1H-indazol-1-yl) ethan-1-amine hydrochloride] | 69.8% | – | – | – |
| Cc1cc(Cl)cc(CNCc2c[nH]c3ccccc23)c1 [Compound 3, N-((1H-indol-3-yl)methyl)-1-(3-chloro-5-methylphenyl) methanamine hydrochloride] | 77.2% | – | – | – |
| Cc1cc(Cl)cc(CNCCc2c(C)[nH]c3ccccc23)c1 [Compound 9, N-(3-chloro-5-methylbenzyl)-2-(2-methyl-1H-indol-3-yl) ethan-1-amine hydrochloride] | 88.9% | 0.015 µM | > 1 µM | – |
| Cc1cc(Cl)cc(CNCCc2c[nH]c3ccccc23)c1 [Compound 1, N-(3-chloro-5-methylbenzyl)-2-(1H-indol-3-yl) ethan-1-amine] | 77.8% | 0.0045 µM | 0.028 µM | – |
| Cc1cc(Cl)cc(CNCCn2c(=O)oc3ccccc32)c1 [Compound 17, 3-(2-((3-chloro-5-methylbenzyl)amino)ethyl)benzo-[d]oxazol-2(3H)-one] | -5.4% | – | – | – |
| COc1cc2c(CCNCc3cc(C)cc(Cl)c3)c[nH]c2cc1I [Compound 4, N-(3-chloro-5-methylbenzyl)-2-(6-iodo-5-methoxy-1H-indol-3-yl) ethan-1-amine] | 96.4% | 0.06 µM | 0.384 µM | – |
| Cc1cc(F)cc(CNCCc2c[nH]c3ccccc23)c1 [Compound 10, N-(3-fluoro-5-methylbenzyl)-2-(1H-indol-3-yl) ethan-1-amine hydrochloride] | 72.6% | – | – | – |
